Source: PMC10096453, “One-Pot Synthesis and Evaluation of Antioxidative Stress and Anticancer Properties of an Active Chromone Derivative” (Molecules, 2023)
Like-named read-outs stand apart in the source and are kept apart here.

Columns and labels:
[1] = DPPH radical scavenging assay; format: biochemical; design: DPPH517nm % SA ± SD: dose or concentration left out as unconfirmed; conditions: for DPPH517nm % SA ± SD: mean of three measurements
Description: (§1) Three in vitro antioxidant assays (DPPH, FRAP, and ABTS) were utilized to evaluate the antioxidant property of the synthesized compounds. The DPPH (α, α-diphenyl-β-picrylhydrazyl) assay is the well-known approach to determine antioxidant activity using a stable free radical DPPH, measure the absorbance change, and calculate the absorbance change in the percentage of scavenging activity. […] For example, the ferric-tripyridyltriazine (Fe^3+-TPTZ, colorless) complex is reduced to ferrous tripyridyltriazine (Fe^2+-TPTZ) at low pH and introduces a blue color with maximum absorption at 593 nm. The change in absorbance is related to antioxidant activity. However, a significant limitation of these in vitro tests is the non-physiological measurement conditions (no enzymatic condition and no transition metal ion chelating activity); therefore, the results obtained may not reflect the antioxidant activity of the source material under the biological conditions that exist in humans and animals. The ABTS assay involves a more drastic radical that is chemically produced. The use of ABTS for antioxidant activity determination of hydrophilic and lipophilic pure compounds has attracted interest due to its solubility in organic and aqueous media and stability in a wide pH range [31].
The DPPH method was followed and modified from a previous study. Trolox was used as a reference. The DPPH stock solution at a concentration of 0.625 mM was prepared in 50% ethanol and kept at 4 °C in the dark. On the day of the experiment, 0.208 mM fresh DPPH working solution was freshly prepared by further diluting with 50% ethanol. […] Each reaction was carried out in a 96-well plate, and 100 μL of test preparation and DPPH solution were added. The 96-well plate was then shaken well for 10 min and kept in the dark at room temperature for 20 min, and the absorbance was recorded at 515–517 nm. According to the method described, delocalization also results in a deep violet color and is quantified as a percentage of scavenging activity. % scavenging activity (SA) = 100 × (Asample − Ablank)/(Acontrol − Ablank)(1) where Acontrol and Asample are the absorbances of the test DPPH without and with a sample, respectively. Ablank is the absorbance of the solvent used. The EC50 values were calculated from the relationship curve of %SA versus sample concentration. The experiment was carried out at least in triplicate.

[2] = FRAP (ferric reducing antioxidant power) assay; format: biochemical; conditions: Trolox equivalent
Description: as §1
The FRAP assay is a method for assessing antioxidant power. Briefly, the FRAP reagent was prepared from acetate buffer pH 3.6, 10 mM TPTZ solution in 40 mM HCl and 20 mM FeCl3.6 H2O in relative proportions of 10:1:1, v/v, respectively. The FRAP reagent was freshly prepared daily. A solution of 5 μL of the sample (3–300 μM, approx.) was mixed with 180 μL of the FRAP reagent in a 96-well plate. The mixture was shaken in the dark for 10 min and incubated at 37 °C for 20 min, and the absorbance was determined at 593 nm. The solution without the sample was used as a blank. All determinations were made in triplicate. Trolox was used as a standard antioxidant and plot the calibration curve between absorbance and concentration. Quercetin was applied as the reference compound. The FRAP values were calculated by comparing the absorbance change in the test sample and represented in μM of Trolox equivalent per μM of sample.

[3] = ABTS radical cation scavenging assay; format: biochemical
Description: as §1
The ABTS assay was prepared by reaction of 5 mL of a 7 mM aqueous ABTS (2,2′-azino-bis (3-ethylbenzthiazoline-6-sulphonic acid) solution and 2.45 mM potassium persulfate solution (K2S2O8). After preparation and storage in the dark for 16 h, the radical cation solution was further diluted in ethanol to absorb about 0.7 at 734 nm. Trolox and test sample solutions were prepared in stock solution with DMSO and diluted with ethanol. A solution of 100 μL of the sample was mixed with 100 μL of the ABTS reagent in a 96-well plate. The mixture was shaken in a dark place for 10 min and incubated at 37 °C for 20 min, and the absorbance was determined at 734 nm. Absorbance determinations were recorded immediately and not more than 1 h after adding the reagent. The solution without the sample was used as a blank. All the determinations were made in triplicate. The sample’s scavenging percentage was calculated from this equation: scavenging percentage = (Absorbance control − Absorbance sample) × 100/Absorbance control. EC50 values were calculated from the relationship curve of %scavenging versus sample concentration.

[4] = MTT cytotoxicity assay, HEK293 cells; format: cell-based; conditions: human, HEK293 cells, 100 μM; for viability at 24 h, 100 µM: read-out: % Viability ± SD (at 100 μM) HEK293 24 h; for viability at 48 h, 100 µM: read-out: % Viability ± SD (at 100 μM) HEK293 48 h
Description: (§2) HEK293, HACAT, and HeLa cells were grown in modified Eagles’ minimum essential medium (EMEM, Gibco) with 10% fetal bovine serum (FBS, Gibco), 1% of 100 U/mL streptomycin and 100 U/mL penicillin (Gibco). Cells were seeded in culture flasks and maintained in an incubator at 37 °C in a humidified atmosphere with 5% CO2. After reaching 80–90% of confluence, cells were detached by incubation with 0.25% trypsin-0.2% EDTA (Gibco) for 5 min and plated for experiments.
(§3) This study examined cell cultures of HEK293, HACAT, and HeLa cells. The cytotoxicity of the test samples was carried out by the MTT (3-(4,5-dimethylthiazol-2-yl)-2,5-diphenyltetrazolium bromide) assay. The cells were seeded in 96-well microliter plates (2.0 × 10^4 cells/well). Stock solutions of the test compounds were prepared in DMSO. After 24 h, cells were treated with different concentrations of samples and diluted with media to obtain the final desired concentration. The treated cells were then incubated at 37 °C and 5% CO2 for 24 and 48 h. After incubation, the medium was replaced with 0.05% w/v of MTT solution in PBS and further incubated for 3 h. The solution was then discarded and DMSO was added to dissolve the formed formazan crystals. Each well’s absorbance (A) was measured at 570 nm using a microplate reader (FLUOstar Omega^TM, BMG Labtech, Ortenberg, Germany). All experiments were carried out in triplicate and repeated for at least three experiments.

HEK293 cells = assay: MTT cytotoxicity assay, HEK293 cells; format: cell-based; conditions: 24 and 48 h treatment
Description: as §2, §3

[5] = MTT cytotoxicity assay, HACAT cells; format: cell-based; conditions: human; for viability at 24 h, 100 µM: read-out: % Viability ± SD (at 100 μM) HACAT 24 h; for viability at 48 h, 100 µM: read-out: % Viability ± SD (at 100 μM) HACAT 48 h
Description: as §2, §3

HeLa cell = assay: MTT anticancer activity assay, HeLa cells; format: cell-based
Description: as §2, §3

HeLa cells = assay: Cellular ROS assay (ROS deep red fluorescence kit); format: cell-based; conditions: pretreatment 50, 100, 150 μM for 24 h; 5 mM H2O2 30 min
Description: ROS is the main contributor to cell death. These reactive molecules are formed by several mechanisms and can be detected by various techniques. In order to investigate the level of cellular ROS after treatment with compounds, the accumulation of intracellular ROS in cells was quantified with a cellular ROS assay kit (ab186029, Abcam, Boston, USA) fluorescence assay. After pretreatment with 2f, 2j, and 3i at 50, 100, and 150 μM for 24 h, cell stress was induced with 5 mM hydrogen peroxide for 30 min. The cells in each well were collected and resuspended with a serum-free medium containing the ROS red probe. Subsequently, cells were incubated at 37 °C for 30 min in the dark, and fluorescence was read at Ex/Em = 650/675 nm.
In this study, Hela cells were seeded overnight at 20,000 cells/90 µL/well in a black wall/clear bottom 96-well plate. Cells included those untreated (control) and those pre-treated with compounds at various concentrations (50, 100, 150 μM) for 24 h. The ROS deep red assay solution (100 μL/well) was added and incubated at 5% CO2, 37 °C incubator for 30 min. The fluorescence signal was monitored at Ex/Em = 650/675 nm (cut off = 665 nm) with bottom read mode within 30 min (cellular ROS assay kit, ab186029, abcam).

[6] = Homo sapiens, 24 h, read-out: % Viability ± SD (at 100 μM) HeLa 24 h
[7] = Homo sapiens, 48 h, read-out: % Viability ± SD (at 100 μM) HeLa 48 h

Row | Structure (SMILES) | DPPH517nm % SA ± SD [1] [%] | FRAP593nm Value ± SD (TE) [2] | ABTS734nm % Scavenging at 500 µM [3] [%] | viability at 24 h, 100 µM [4] [%] | viability at 48 h, 100 µM [4] [%] | Toxicity in HEK293 cells (HEK293 cells) | viability at 24 h, 100 µM [5] [%] | viability at 48 h, 100 µM [5] [%] | IC50 (HeLa cell; 24 h) [µM] | Anticancer activity on cervical cancer cells (HeLa cell; HeLa, 24 h) | IC50 (HeLa cell; Homo sapiens, HeLa, 24 h) [µM] | viability at 100 µM (HeLa cell; [6]) [%] | viability at 100 µM (HeLa cell; [7]) [%] | melting point [°C] | EC50 ([1]; read-out: DPPH517nm EC50 ± SD) [µM] | EC50 ([3]; read-out: ABTS734nm EC50 ± SD) [µM] | Cellular ROS fluorescence intensity vs H2O2-treated cells (HeLa cells)
1 | O=C(c1ccc([N+](=O)[O-])cc1)c1c(-c2ccc([N+](=O)[O-])cc2)oc2cc(O)ccc2c1=O [2i, 7-hydroxy-3-(4-nitrobenzoyl)-2-(4-nitrophenyl)-4H-chromen-4-one] | 13.75 ± 3.31 | 0.08 ± 0.006 µM Trolox/1 µM of Synthesized Compounds | 8.52 ± 3.89 | 65.1 ± 1.21 | 41.2 ± 2.11 | more toxic | 59.8 ± 5.77 | 27.5 ± 1.24 | 34.9 ± 2.41 | contained anticancer activity | 34.9 | 38.7 ± 5.22 | 12.5 ± 1.45 | 290 to 291 | – | – | –
2 | CC(=O)c1ccc(O)c(O)c1OC(=O)c1ccccc1 [3i, 6-Acetyl-2,3-dihydroxyphenyl benzoate] | 90.55 ± 0.36 | 3.16 ± 0.350 µM Trolox/1 µM of Synthesized Compounds | 78.80 ± 1.14 | 110 ± 1.2 | 107 ± 4.18 | – | 104.8 ± 0.88 | 84.9 ± 3.05 | – | – | – | 99.9 ± 4.19 | 37.1 ± 1.96 | – | 59 ± 11.2 | 13.9 ± 0.74 | decreased significantly
3 | CC(=O)c1ccc(O)cc1OC(=O)c1ccco1 [compound 4, 2-Acetyl-5-hydroxyphenyl furan-2-carboxylate] | 0.99 ± 0.71 | 0.00 ± 0.001 µM Trolox/1 µM of Synthesized Compounds | 14.51 ± 1.94 | 97.99 ± 0.4 | 108 ± 2.84 | – | 85.7 ± 5.6 | 72.2 ± 1.81 | – | – | – | 86.1 ± 3.24 | 91.07 ± 0.65 | 122 to 124 | – | – | –
